{"source": "patent US9347942B2", "about": "“Ultrasensitive cell based sensors and uses thereof” (CANVAX BIOTECH SL, priority 2010, dated 2016)", "key": {"CHRM2": {"biological_target": "T1, CHRM2 (Homo sapiens, UniProt P08172)", "T1 construct": "the entire human GPCR; mouse immunoglobulin kappa signal peptide (N); expressed in transfected cells", "T1 sequence (P08172 2-466)": "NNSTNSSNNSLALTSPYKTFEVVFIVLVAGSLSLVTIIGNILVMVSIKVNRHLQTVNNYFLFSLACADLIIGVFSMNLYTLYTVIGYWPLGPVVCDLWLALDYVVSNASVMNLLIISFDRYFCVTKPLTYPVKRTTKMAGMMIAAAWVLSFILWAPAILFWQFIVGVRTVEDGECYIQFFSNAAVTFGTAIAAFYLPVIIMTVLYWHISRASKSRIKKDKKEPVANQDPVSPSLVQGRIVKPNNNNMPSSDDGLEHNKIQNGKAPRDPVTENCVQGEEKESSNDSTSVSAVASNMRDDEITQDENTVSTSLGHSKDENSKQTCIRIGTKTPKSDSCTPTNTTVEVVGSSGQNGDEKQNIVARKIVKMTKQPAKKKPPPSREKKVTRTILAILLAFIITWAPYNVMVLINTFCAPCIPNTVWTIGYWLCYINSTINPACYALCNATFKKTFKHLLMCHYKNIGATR", "assay": "Number of steps needed, 384 well mix and read assay (Example 13)", "type": "cell-based", "conditions": "carbachol 10 uM, 5.000 cells, only 15 uL of medium aspirated, 30 minutes", "text": "This experiment was designed to test how many steps are needed for an assay with the cell based sensor, in particular if a washing step is needed before assay. As the RBL-2H3 is an adherent cell line at least one step of aspiration of cell culture medium is needed. If all cell culture medium is aspirated then cells should become dry and eventually die in particular if there is a time interval between aspiration and addition of compounds to test for exocytosis. For this reason an additional treatment was included were not all cell culture medium is aspirated. But if not all the cell culture medium is aspirated then some of the reporter secreted by cells after overnight culture contributes to basal exocytosis. CHRM2 and granzyme B expressing cells from example #12 were used in this experiment but cells were seeded 16 hours before experiment at 5.000 cells per well of a 384 well plate with black walls in 20 uL of culture medium. Before experiment three treatments were made: (1) discarding all the 20 uL of medium without washing; (2) discarding only 15 uL of cell culture medium and (3) discarding only 15 uL of cell culture medium and washing of the cells using 75 uL of Hanks Balanced Salt Solution (HBSS) containing 0.1% BSA and aspiration of 75 uL of washing buffer. […] Plates were incubated at 37° C. in the fluorescence reader and read at 0, 15, 30, 45 and 60 minutes. […]"}, "hIL8 receptor (hIL8RA)": {"biological_target": "T2, hIL8 receptor (hIL8RA) (Homo sapiens, UniProt P25024)", "T2 construct": "the entire human GPCR; mouse immunoglobulin kappa signal peptide (N); expressed in transfected cells", "T2 sequence (P25024 3-350 limits assumed)": "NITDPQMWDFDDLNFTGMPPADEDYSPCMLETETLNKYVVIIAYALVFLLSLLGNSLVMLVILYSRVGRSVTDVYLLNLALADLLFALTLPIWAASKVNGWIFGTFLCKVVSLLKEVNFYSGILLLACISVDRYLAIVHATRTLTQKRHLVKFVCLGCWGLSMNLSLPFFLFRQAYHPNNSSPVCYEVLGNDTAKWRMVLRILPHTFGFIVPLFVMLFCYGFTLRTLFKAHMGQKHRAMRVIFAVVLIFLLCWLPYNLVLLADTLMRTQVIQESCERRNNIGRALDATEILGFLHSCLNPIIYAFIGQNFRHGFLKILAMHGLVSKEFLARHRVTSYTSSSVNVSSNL", "assay": "Multiplex assay, Sensor A channel (hIL8RA and human granzyme A) (Example 14)", "type": "cell-based", "conditions": "Condition 4: Sensor A 12500 + Sensor B 5000 cells, carbachol 10 uM, no IL8, granzyme A substrate 1 uM", "text": "The principle of multiplex reactions is illustrated in FIG. 5. RBL2H3 cells were stably transfected with a pair of a GPCR as exocytosis modulator and a granzyme as a granule stored reporter as described in example 9. Combinations included were: hIL8 receptor (hIL8RA) and human granzyme A (Sensor A) and CHRM2 and granzyme B expressing cells of example #12 (Sensor B). Human IL8 was used as agonist of hll_8R while carbachol was used as CHRM2 agonist. […] As both substrates uses the same pair of fluorophore (FAM) and quencher (TAMRA) only one substrate could be added to reaction vessel for specific detection at 535 nm after excitation at 485 nm. […] Sensors, agonists and substrates were mixed in a total volume of 20 uL of HBSS in a black walled 384 well microplate and the microplate was incubated at 37 Celsius degrees in a BMG-Labtech microplate fluorimeter and read at 0, 15, 30, 45 and 60 minutes."}}, "data": [{"smiles": "C[N+](C)(C)CCOC(N)=O", "note": "[Carbachol, carbachol]", "values": [{"measurement": "signal to background", "setting": "CHRM2", "value": "8-10"}, {"measurement": "Signal to background at 30 min", "setting": "hIL8 receptor (hIL8RA)", "value": 0.78}]}]}
